Laboratory results from publication PMC3928398, “RPEL Proteins Are the Molecular Targets for CCG-1423, an Inhibitor of Rho Signaling” (PLoS ONE, 2014).

Experiments:
Test in all cases: pull-down with CCG-1423 Sepharose, immunoblot
Format in all cases: binding
Phactr1, Flag-Phactr1 = target: T1, Phactr1, Flag-Phactr1 (Rattus norvegicus, UniProt P62024); details: immobilised CCG-1423 (photo-crosslinked to Sepharose); pH 7.5, 4°C, 2 h
T1 construct: N-terminal Flag tag, pCS2+; in vitro translated in wheat germ extract, anti-Flag purified
T1 sequence (P62024 1-580): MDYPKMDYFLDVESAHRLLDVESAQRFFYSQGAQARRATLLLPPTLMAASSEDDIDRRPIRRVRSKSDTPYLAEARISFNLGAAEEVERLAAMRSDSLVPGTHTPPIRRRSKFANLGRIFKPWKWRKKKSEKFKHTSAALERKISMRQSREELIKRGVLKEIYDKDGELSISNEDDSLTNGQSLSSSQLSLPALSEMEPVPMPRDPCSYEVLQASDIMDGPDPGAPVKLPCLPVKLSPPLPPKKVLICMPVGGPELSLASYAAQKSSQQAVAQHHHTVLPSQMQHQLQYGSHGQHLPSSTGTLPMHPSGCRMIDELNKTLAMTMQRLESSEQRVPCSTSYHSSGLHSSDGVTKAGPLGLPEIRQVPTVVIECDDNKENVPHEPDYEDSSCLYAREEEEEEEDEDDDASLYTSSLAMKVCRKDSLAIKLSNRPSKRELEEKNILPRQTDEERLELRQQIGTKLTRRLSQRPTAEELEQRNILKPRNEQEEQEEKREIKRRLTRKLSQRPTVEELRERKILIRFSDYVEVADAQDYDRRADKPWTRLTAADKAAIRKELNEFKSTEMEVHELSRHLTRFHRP

[1] = target: T2, MRTF-A (MAL/MKL1), Flag-MRTF-A (Mus musculus, UniProt Q8K4J6); details: immobilised CCG-1423 (photo-crosslinked to Sepharose); pH 7.5, 4°C, 2 h
T2 construct: gene Mrtfa; N-terminal Flag tag, pCS2+; in vitro translated in wheat germ extract, anti-Flag purified
T2 sequence (Q8K4J6 1-964): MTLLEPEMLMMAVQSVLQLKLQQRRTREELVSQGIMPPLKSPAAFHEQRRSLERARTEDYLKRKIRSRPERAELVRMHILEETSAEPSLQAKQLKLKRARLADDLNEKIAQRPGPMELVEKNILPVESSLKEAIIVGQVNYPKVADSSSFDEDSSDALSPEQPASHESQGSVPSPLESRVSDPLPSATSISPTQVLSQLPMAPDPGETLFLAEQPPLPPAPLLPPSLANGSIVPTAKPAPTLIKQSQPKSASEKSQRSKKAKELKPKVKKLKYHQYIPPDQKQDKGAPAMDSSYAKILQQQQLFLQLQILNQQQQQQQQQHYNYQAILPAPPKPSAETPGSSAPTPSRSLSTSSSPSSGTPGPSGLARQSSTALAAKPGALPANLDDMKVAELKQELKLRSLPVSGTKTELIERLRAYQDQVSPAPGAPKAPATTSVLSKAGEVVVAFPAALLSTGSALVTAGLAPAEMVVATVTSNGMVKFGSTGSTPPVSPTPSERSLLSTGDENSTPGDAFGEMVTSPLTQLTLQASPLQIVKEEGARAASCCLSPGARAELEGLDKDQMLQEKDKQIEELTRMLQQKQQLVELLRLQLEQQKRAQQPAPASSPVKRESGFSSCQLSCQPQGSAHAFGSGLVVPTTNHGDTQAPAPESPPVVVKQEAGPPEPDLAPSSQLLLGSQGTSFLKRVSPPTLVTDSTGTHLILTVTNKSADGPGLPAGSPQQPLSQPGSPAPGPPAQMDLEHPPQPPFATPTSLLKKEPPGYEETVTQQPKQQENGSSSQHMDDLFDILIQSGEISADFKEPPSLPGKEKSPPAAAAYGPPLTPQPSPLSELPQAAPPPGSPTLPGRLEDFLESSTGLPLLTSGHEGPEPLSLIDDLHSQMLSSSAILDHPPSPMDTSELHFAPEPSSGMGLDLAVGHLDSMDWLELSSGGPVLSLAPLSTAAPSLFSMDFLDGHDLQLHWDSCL

[2] = target: T3, MRTF-B (MAL16/MKL2), Flag-MRTF-B (Mus musculus, UniProt P59759); details: immobilised CCG-1423 (photo-crosslinked to Sepharose); pH 7.5, 4°C, 2 h
T3 construct: gene Mrtfb; N-terminal Flag tag, pCS2+; in vitro translated in wheat germ extract, anti-Flag purified
T3 sequence (P59759 1-1080): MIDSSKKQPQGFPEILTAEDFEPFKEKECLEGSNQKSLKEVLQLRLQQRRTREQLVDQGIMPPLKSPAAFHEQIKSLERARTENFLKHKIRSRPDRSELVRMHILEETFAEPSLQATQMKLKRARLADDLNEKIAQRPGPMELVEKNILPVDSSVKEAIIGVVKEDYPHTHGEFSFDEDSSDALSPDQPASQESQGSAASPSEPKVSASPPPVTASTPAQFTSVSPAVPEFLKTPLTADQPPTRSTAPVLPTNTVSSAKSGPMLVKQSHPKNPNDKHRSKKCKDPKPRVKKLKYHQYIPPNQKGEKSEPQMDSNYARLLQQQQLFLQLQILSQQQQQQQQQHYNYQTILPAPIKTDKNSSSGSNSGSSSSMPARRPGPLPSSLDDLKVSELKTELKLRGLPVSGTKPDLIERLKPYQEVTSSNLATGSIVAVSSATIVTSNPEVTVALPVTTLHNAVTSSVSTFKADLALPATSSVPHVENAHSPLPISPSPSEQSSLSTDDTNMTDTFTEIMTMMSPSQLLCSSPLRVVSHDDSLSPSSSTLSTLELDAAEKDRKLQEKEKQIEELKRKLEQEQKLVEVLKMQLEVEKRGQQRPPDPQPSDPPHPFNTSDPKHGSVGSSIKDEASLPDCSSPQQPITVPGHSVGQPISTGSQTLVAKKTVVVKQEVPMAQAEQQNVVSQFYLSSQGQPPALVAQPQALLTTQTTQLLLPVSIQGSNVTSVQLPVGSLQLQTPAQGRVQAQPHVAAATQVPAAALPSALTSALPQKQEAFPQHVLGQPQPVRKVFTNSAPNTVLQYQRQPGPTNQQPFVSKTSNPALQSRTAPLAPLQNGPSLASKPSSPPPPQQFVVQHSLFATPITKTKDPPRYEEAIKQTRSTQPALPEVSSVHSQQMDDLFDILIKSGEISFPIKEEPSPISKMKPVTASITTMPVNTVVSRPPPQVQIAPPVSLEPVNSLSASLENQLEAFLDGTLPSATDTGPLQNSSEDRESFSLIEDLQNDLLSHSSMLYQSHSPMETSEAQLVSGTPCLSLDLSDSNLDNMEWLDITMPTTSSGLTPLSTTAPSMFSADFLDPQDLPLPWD

[3] = target: T3, MRTF-B (MAL16/MKL2), Flag-MRTF-B; details: immobilised CCG-1423 (photo-crosslinked to Sepharose); pH 7.5, 4°C, 2 h; remark: listed apart in the source
[4] = target: T2, MRTF-A (MAL/MKL1), Flag-MRTF-A; details: immobilised CCG-1423 (photo-crosslinked to Sepharose) competed by 10 µM free CCG-1423; no G-actin; pH 7.5, 4°C, 2 h; site: N-terminal basic domain (NB)
[5] = target: T4, Mycd (myocardin), Flag-Mycd (Mus musculus, UniProt Q8VIM5); details: immobilised CCG-1423 (photo-crosslinked to Sepharose); pH 7.5, 4°C, 2 h
T4 construct: gene Myocd; N-terminal Flag tag, pCS2+; in vitro translated in wheat germ extract, anti-Flag purified
T4 sequence (Q8VIM5 1-935): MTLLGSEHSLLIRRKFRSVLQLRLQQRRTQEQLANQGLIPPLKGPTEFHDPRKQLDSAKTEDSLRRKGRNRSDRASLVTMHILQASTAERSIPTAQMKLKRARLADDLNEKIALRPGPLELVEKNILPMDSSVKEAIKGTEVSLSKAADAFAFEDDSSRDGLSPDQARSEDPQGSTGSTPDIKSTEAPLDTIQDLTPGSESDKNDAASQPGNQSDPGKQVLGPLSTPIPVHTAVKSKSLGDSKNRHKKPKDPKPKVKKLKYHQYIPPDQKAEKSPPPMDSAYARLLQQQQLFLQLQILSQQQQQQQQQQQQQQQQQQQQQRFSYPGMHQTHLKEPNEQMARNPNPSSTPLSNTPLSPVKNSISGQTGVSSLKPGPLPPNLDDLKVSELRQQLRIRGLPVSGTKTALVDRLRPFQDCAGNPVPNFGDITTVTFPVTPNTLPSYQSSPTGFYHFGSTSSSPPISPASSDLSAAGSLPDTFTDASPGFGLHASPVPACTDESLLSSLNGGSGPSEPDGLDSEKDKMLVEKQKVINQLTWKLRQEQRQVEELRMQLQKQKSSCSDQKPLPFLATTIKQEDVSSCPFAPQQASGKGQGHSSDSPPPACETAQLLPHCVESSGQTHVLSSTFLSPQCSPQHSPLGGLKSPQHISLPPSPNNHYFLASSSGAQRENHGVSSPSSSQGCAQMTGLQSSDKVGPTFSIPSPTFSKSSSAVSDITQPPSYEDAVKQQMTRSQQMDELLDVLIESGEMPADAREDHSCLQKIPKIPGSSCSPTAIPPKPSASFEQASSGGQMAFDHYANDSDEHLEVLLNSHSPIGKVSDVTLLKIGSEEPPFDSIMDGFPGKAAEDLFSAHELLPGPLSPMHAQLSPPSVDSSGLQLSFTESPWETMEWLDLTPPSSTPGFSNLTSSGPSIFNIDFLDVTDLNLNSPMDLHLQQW

CC(ONC(=O)c1cc(C(F)(F)F)cc(C(F)(F)F)c1)C(=O)Nc1ccc(Cl)cc1 (stereo not drawn) [CCG-1423]
pull-down with CCG-1423 Sepharose, immunoblot (Phactr1, Flag-Phactr1): MRTF-B, Mycd, and Phactr1 bound to CCG-1423 Sepharose | % of wild-type binding [1]: 11.2±8.5% | pull-down with CCG-1423 Sepharose, immunoblot [2]: MRTF-B NBmut) to CCG-1423 Sepharose severely reduced | pull-down with CCG-1423 Sepharose, immunoblot [3]: MRTF-B, Mycd, and Phactr1 bound to CCG-1423 Sepharose | % of binding left with 10 μM free CCG-1423 [4]: 20.6±6.3% | pull-down with CCG-1423 Sepharose, immunoblot [5]: MRTF-B, Mycd, and Phactr1 bound to CCG-1423 Sepharose
